Laboratory results taken from article PMC6263338, “Synthesis of Some Phenylpropanoid Glycosides (PPGs) and Their Acetylcholinesterase/Xanthine Oxidase Inhibitory Activities” (Molecules, 2011).
“Also recorded” adds a separate entry of the source. Where two headings read alike, the source gives them in different places.

Assays:
[1] = biological target: T1, AChE (from drosophila) (Drosophila melanogaster, UniProt P07140); assay: In vitro AChE inhibitory activity (Acetylcholinesterase Detection Kit); type: biochemical; settings: for inhibition at 1500 µg/mL: read-out: AChE inhibitory activitiy % inhibition (1.5 mg/mL); for inhibitory activities toward cholinesterase (in words): summary of Table 1
T1 construct: purchased Jing Peng Bio-Pesticide Co., Ltd. Shandong, P. R. China
Description: (§1) In vitro inhibitory activity test of these glycosides against AChE and XOD was studied by using Acetylcholinesterase Detection Kit and Xanthine Oxidase Detection Kit.
Assay of the in vitro AChE/XOD inhibitory activity: The tests of in vitro inhibitory activity of these PPGs against AChE (from drosophila, Jing Peng Bio-Pesticide Co., Ltd. Shandong, P. R. China) and Xanthine Oxidase (from buttermilk, Sigma Co., Ltd. X4875) were carried out by using AChE (or XOD) Detection Kits (Jian Cheng Bioengineering Institute, Nan Jin, Jiangsu, P. R. China), following the manufacturer’s protocol. All the compounds were dissolved in 1% DMSO. […] The results were read on a microplate reader at the wavelength of 450 nm/530 nm. All the assays were performed in triplicate with three independent experiments. The IC50 values were calculated using XLfit software.

[2] = biological target: T2, Xanthine Oxidase (from buttermilk) (Bos taurus, UniProt P80457); assay: In vitro XOD inhibitory activity (Xanthine Oxidase Detection Kit); type: biochemical; settings: for inhibition at 1500 µg/mL: read-out: XOD inhibitory activity % inhibition (1.5 mg/mL); for XOD inhibitory activity (in words): summary of Table 1
T2 construct: Xanthine Oxidase (from buttermilk, Sigma Co., Ltd. X4875); purchased Sigma Co., Ltd. X4875; host or cells: buttermilk
Description: as §1
Assay of the in vitro AChE/XOD inhibitory activity: The tests of in vitro inhibitory activity of these PPGs against AChE (from drosophila, Jing Peng Bio-Pesticide Co., Ltd. Shandong, P. R. China) and Xanthine Oxidase (from buttermilk, Sigma Co., Ltd. X4875) were carried out by using AChE (or XOD) Detection Kits (Jian Cheng Bioengineering Institute, Nan Jin, Jiangsu, P. R. China), following the manufacturer’s protocol. All the compounds were dissolved in 1% DMSO. […] If an inhibition of more than 30% was observed, the compound was classified as active. The active compounds were consequently tested at seven concentrations. The results were read on a microplate reader at the wavelength of 450 nm/530 nm. All the assays were performed in triplicate with three independent experiments. The IC50 values were calculated using XLfit software.

[3] = 1.5 mg/mL, compounds in 1% DMSO, mean ± SD, triplicate
[4] = seven concentrations, mean ± SD of triplicate independent experiments, – = not active, read-out: AChE inhibitory activitiy IC50
[5] = read-out: XOD inhibitory activity IC50, seven concentrations, mean ± SD of triplicate independent experiments, – = not active
[6] = read-out: AChE inhibitory activitiy IC50, seven concentrations, mean ± SD of triplicate independent experiments, – = not active
[7] = seven concentrations, mean ± SD of triplicate independent experiments, – = not active

Row | Molecule | inhibition at 1500 µg/mL [1, 3] [%] | IC50 [1, 4] [µM] | inhibition at 1500 µg/mL [2] [%] | IC50 [2, 5] [µM] | IC50 [1, 6] [µM] | XOD inhibitory activity IC50 (μM) [2, 7] | other results
1 | O[C@@H]1[C@@H](O)[C@H](OC/C=C/c2ccccc2)O[C@H](CO[C@@H]2OC[C@H](O)[C@H](O)[C@H]2O)[C@H]1O [Compound 20, Rosavin] | 85 ± 0.21 | 1.72 ± 0.1 | 73 ± 0.02 | – | – | – | IC50 [2]: 5.55 µM
2 | C[C@@H]1O[C@@H](OC[C@H]2O[C@@H](OCC=Cc3ccccc3)[C@H](O)[C@@H](O)[C@@H]2O)[C@H](O)[C@H](O)[C@H]1O [Compound 23, Cinnamyl 6-O-(α-L-rhamnopyranosyl)-β-D-glucopyranoside] | 81 ± 0.05 | 2.05 | 60 ± 0.01 | 8.21 | – | – | –
3 | OC[C@H]1O[C@@H](OCC=Cc2cccc(O)c2)[C@H](O)[C@@H](O)[C@@H]1O [Compound 16b, 3-Hydroxycinnamyl β-D-glucopyranoside] | 75 ± 2.12 | – | 41 ± 2.22 | 29.6 ± 1.2 | 7.62 ± 1.1 | – | XOD inhibitory activity (in words) [2]: have XOD inhibitory activity
4 | OC[C@H]1O[C@@H](OCC=Cc2ccc(O)cc2)[C@H](O)[C@@H](O)[C@@H]1O [Compound 16a, 4-Hydroxycinnamyl β-D-glucopyranoside] | 34 ± 2.67 | 75.2 ± 1.2 | 32 ± 1.63 | – | – | – | IC50 [2]: 79.3 ± 0.7 µM
5 | COc1ccc(C=CCO[C@@H]2O[C@H](CO[C@@H]3OC[C@H](O)[C@H](O)[C@H]3O)[C@@H](O)[C@H](O)[C@H]2O)cc1 [Compound 22, 4-Methoxycinnamyl 6-O-(α-L-arabinopyranosyl)-β-D-glucopyranoside] | 72 ± 0.1 | 4.23 ± 0.1 | 65 ± 0.1 | 5.71 ± 0.1 | – | – | –
6 | OC[C@H]1O[C@@H](OCC=Cc2ccc(Br)cc2)[C@H](O)[C@@H](O)[C@@H]1O [Compound 10l, 4-Bromocinnamyl β-D-glucopyranoside] | 57 ± 1.22 | – | 55 ± 3.67 | 19.6 ± 1.5 | 22.4 ± 0.6 | – | inhibitory activities toward cholinesterase (in words) [1]: moderate inhibitory activities; XOD inhibitory activity (in words) [2]: have XOD inhibitory activity
7 | OC[C@H]1O[C@@H](OC/C=C/c2ccccc2)[C@H](O)[C@@H](O)[C@@H]1O [Compound 10m, Cinnamyl β-D-glucopyranoside] | 16 ± 0.44 | – | 38 ± 2.83 | 93.2 ± 1.4 | – | – | AChE inhibitory activitiy IC50 (μM) [1, 7]: – (not active (less than 30% inhibition at 1.5 mg/mL))
8 | COc1ccccc1C=CCO[C@@H]1O[C@H](CO)[C@@H](O)[C@H](O)[C@H]1O [Compound 10b, 2-Methoxycinnamyl β-D-glucopyranoside] | 62 ± 4.53 | – | 12 ± 3.12 | – | – | – (not active (less than 30% inhibition at 1.5 mg/mL)) | IC50 [1]: 15.5 ± 2.1 µM; inhibitory activities toward cholinesterase (in words) [1]: moderate inhibitory activities; also recorded: more potent than the corresponding unsubstituted compound 10m
9 | OC[C@H]1O[C@@H](OCC=Cc2ccc(Cl)cc2)[C@H](O)[C@@H](O)[C@@H]1O [Compound 10j, 4-Chlorocinnamyl β-D-glucopyranoside] | 42 ± 3.23 | – | 50 ± 2.35 | 24.3 ± 1.4 | 38.3 ± 1.4 | – | XOD inhibitory activity (in words) [2]: have XOD inhibitory activity
10 | COc1cc(C=CCO[C@@H]2O[C@H](CO)[C@@H](O)[C@H](O)[C@H]2O)ccc1O [Compound 16c, 4-Hydroxy-3-methoxycinnamyl β-D-glucopyranoside] | – | – | 23 ± 0.93 | – | 25.7 ± 0.7 | – (not active (less than 30% inhibition at 1.5 mg/mL)) | inhibition at 1500 µg/mL [1]: 54 ± 2.34%
11 | COc1cccc(C=CCO[C@@H]2O[C@H](CO)[C@@H](O)[C@H](O)[C@H]2O)c1OC [Compound 10e, 2,3-Dimethoxycinnamyl β-D-glucopyranoside] | 34 ± 4.36 | – | 22 ± 0.85 | – | 71.2 ± 2.8 | – (not active (less than 30% inhibition at 1.5 mg/mL)) | –
12 | COc1cc(C=CCO[C@@H]2O[C@H](CO)[C@@H](O)[C@H](O)[C@H]2O)cc(OC)c1OC [Compound 10h, 3,4,5-Trimethoxycinnamyl β-D-glucopyranoside] | 17 ± 4.33 | – | 33 ± 2.16 | – | – | – | AChE inhibitory activitiy IC50 (μM) [1, 7]: – (not active (less than 30% inhibition at 1.5 mg/mL)); IC50 [2]: 69.3 ± 1.3 µM
13 | COc1cc(C=CCO[C@@H]2O[C@H](CO)[C@@H](O)[C@H](O)[C@H]2O)cc(OC)c1 [Compound 10c, 3,5-Dimethoxycinnamyl β-D-glucopyranoside] | 23 ± 0.85 | – | 21 ± 1.21 | – | – | – (not active (less than 30% inhibition at 1.5 mg/mL)) | AChE inhibitory activitiy IC50 (μM) [1, 7]: – (not active (less than 30% inhibition at 1.5 mg/mL))
14 | OC[C@H]1O[C@@H](OCC=Cc2ccc(F)c(F)c2)[C@H](O)[C@@H](O)[C@@H]1O [Compound 10k, 3,4-Difluorocinnamyl β-D-glucopyranoside] | 43 ± 2.31 | 35.5 ± 1.1 | 37 ± 2.78 | 55.4 ± 1.3 | – | – | –
15 | O[C@@H]1[C@@H](O)[C@H](OCC=Cc2ccccc2)O[C@H](CO[C@@H]2OC[C@@H](O)[C@H](O)[C@H]2O)[C@H]1O [Compound 21, Cinnamyl 6-O-(β-D-xylopyranosyl)-β-D-glucopyranoside] | 82 ± 0.11 | – | 74 ± 0.12 | 4.56 ± 0.1 | 3.71 ± 0.1 | – | –
16 | COc1ccc(C=CCO[C@@H]2O[C@H](CO)[C@@H](O)[C@H](O)[C@H]2O)cc1O [Compound 16d, 3-Hydroxy-4-methoxycinnamyl β-D-glucopyranoside] | 66 ± 3.45 | – | 56 ± 2.34 | 16.5 ± 1.1 | 10.3 ± 2 | – | XOD inhibitory activity (in words) [2]: have XOD inhibitory activity
17 | COc1ccc(C=CCO[C@@H]2O[C@H](CO)[C@@H](O)[C@H](O)[C@H]2O)cc1OC [Compound 10d, 3,4-Dimethoxycinnamyl β-D-glucopyranoside] | 43 ± 1.35 | 43.5 ± 0.6 | 35 ± 3.22 | – | – | – | IC50 [2]: 73.5 ± 1.5 µM
18 | OC[C@H]1O[C@@H](OCC=Cc2ccccc2F)[C@H](O)[C@@H](O)[C@@H]1O [Compound 10i, 2-Fluorocinnamyl β-D-glucopyranoside] | 18 ± 2.11 | – | 24 ± 1.32 | – | – | – (not active (less than 30% inhibition at 1.5 mg/mL)) | AChE inhibitory activitiy IC50 (μM) [1, 7]: – (not active (less than 30% inhibition at 1.5 mg/mL))
19 | OC[C@H]1O[C@@H](OCC=Cc2ccc3c(c2)OCO3)[C@H](O)[C@@H](O)[C@@H]1O [Compound 10g, 3,4-Methylenedioxycinnamyl β-D-glucopyranoside] | 15 ± 3.55 | – | 13 ± 1.43 | – | – | – (not active (less than 30% inhibition at 1.5 mg/mL)) | AChE inhibitory activitiy IC50 (μM) [1, 7]: – (not active (less than 30% inhibition at 1.5 mg/mL))
20 | 3-Bromo-4-ethoxy-5-methoxycinnamylcinnamyl β-D-glucopyranoside [Compound 10n] | – | 87.3 ± 2.1 | – | – | – | – | AChE inhibitory activitiy % inhibition (1.5 mg/mL) [1, 3]: 36 ± 3.55%; XOD inhibitory activity % inhibition (1.5 mg/mL) [2, 3]: 28 ± 1.74%; IC50 ([2]; seven concentrations, mean ± SD of triplicate independent experiments, – = not active, read-out: XOD inhibitory activity IC50): 97.3 ± 0.8 µM
